Molecular target: T1, human plasmin (Homo sapiens, UniProt P00747)
T1 construct: precursors of plasmin, such as plasminogen
Test: indirect enzymatic determination: release of pNA from chromogenic substrate S-2251 by plasmin in the presence of defibrotide
Assay type: biochemical
Experimental: 150 μl of each of the standard defibrotide solutions described above are taken and introduced into the wells of the microplates.
The plasmin solution is then prepared rapidly by adding, at 0° C., 3.8 ml of TRIS-HCl buffer to the test tube containing 0.2 ml of human plasmin solution. The whole is agitated gently until dissolution has occurred, and 50 μl are taken and introduced into the wells of the microplate, followed by 50 μl of S-2251 for each well.
The microplate, placed in the MRX TCII reader set at 37° C., is agitated for approximately 10 seconds; the absorbance readings are carried out at 405 nm, at the initial time t0 and subsequently every two minutes in the interval from 10 to 20 minutes, in accordance with the enzymatic kinetics program.
The microplate, placed in the MRX TCII reader set at 37° C., is agitated for approximately 10 seconds; the absorbance readings are taken at 405 nm, at the initial time t0 and subsequently every 5 minutes for a period from the 20th to the 50th minute, in accordance with the enzymatic kinetics program.
The absorbance values measured are then processed (Excel and Sigma Plot programs), tabulated and represented in a graph (regression lines).
In addition, considering the data reported in Table 1, 2 and 3, we have also calculated the μM/min of p-Nitroaniline released by plasmin acting on the chromogenic substrate in the presence of Defibrotide.
The “b” values reported in Tables 1, 2 and 3, namely the slopes of the kinetics curves, represent the ΔAbs/min×1000 (usually, just to avoid numbers with commas, the scale for the spectrophotometric readings in FIGS. 3, 4 and 5 was multiplied by 1000; as a consequence, the real spectrophotometric absorbance reading is obtained dividing “b” by 1,000).
Knowing from the literature, the Molar Extinction Coefficient for p-Nitroaniline (8,270 M^−1cm^−1, corresponding to 0.008270 Unit of Absorbance per μM of p-Nitroaniline) it follows that: 1μM p-Nitroaniline: 0.008270 (Absorbance)=X μM p-Nitroaniline: Spectrophotometric Reading (“b”/1000)
In this way we have calculated the micromoles of p-Nitroaniline released in the previous experiments, whose value are reported in table 4.

[1] = Mean±Standard Deviation of 5 replications, X = concentration of defibrotide (μg/ml)
[2] = Replication 2, X = concentration of defibrotide (μg/ml)
[3] = Replication 3, X = concentration of defibrotide (μg/ml)
[4] = Replication 4, X = concentration of defibrotide (μg/ml)
[5] = Replication 5, X = concentration of defibrotide (μg/ml)

T1 sequence (P00747 97-580 limits assumed): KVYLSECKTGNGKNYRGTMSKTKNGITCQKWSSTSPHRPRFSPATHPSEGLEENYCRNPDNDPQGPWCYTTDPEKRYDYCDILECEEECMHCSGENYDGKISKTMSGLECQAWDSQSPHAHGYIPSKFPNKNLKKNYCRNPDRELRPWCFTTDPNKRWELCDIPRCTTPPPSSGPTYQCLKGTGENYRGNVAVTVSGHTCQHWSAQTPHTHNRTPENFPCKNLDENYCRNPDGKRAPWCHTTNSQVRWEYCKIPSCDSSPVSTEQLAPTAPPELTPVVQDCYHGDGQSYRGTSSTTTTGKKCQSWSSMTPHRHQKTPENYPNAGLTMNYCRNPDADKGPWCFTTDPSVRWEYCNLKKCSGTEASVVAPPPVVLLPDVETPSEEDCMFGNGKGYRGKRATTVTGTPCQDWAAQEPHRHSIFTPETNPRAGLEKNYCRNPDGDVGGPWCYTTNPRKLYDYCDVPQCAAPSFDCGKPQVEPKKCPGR
T1 sequence (P00747 581-810 limits assumed): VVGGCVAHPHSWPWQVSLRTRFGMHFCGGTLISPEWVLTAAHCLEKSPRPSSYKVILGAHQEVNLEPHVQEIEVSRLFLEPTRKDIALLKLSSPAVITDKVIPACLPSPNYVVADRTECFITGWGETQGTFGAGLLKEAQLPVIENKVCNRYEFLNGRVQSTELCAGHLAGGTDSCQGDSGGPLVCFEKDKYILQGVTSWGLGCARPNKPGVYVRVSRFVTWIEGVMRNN

Substance: Defibrotide
- a of pNA(μM/min)=a+blog X [1]: 0.6908±0.0291 μM/min
- b of pNA(μM/min)=a+blog X [1]: 0.3140±0.0437
- slope b of regression μM/min p-Nitroaniline = a + b log X (Replication 1, X = concentration of defibrotide (μg/ml)): 0.3820
- intercept a of regression μM/min p-Nitroaniline = a + b log X (Replication 1, X = concentration of defibrotide (μg/ml), 37° C., 405 nm): 0.7317 μM/min
- intercept a of regression μM/min p-Nitroaniline = a + b log X [2]: 0.6625 μM/min
- slope b of regression μM/min p-Nitroaniline = a + b log X [2]: 0.2907
- intercept a of regression μM/min p-Nitroaniline = a + b log X [3]: 0.6708 μM/min
- slope b of regression μM/min p-Nitroaniline = a + b log X [3]: 0.2741
- intercept a of regression μM/min p-Nitroaniline = a + b log X [4]: 0.6792 μM/min
- slope b of regression μM/min p-Nitroaniline = a + b log X [4]: 0.2907
- intercept a of regression μM/min p-Nitroaniline = a + b log X [5]: 0.7100 μM/min
- slope b of regression μM/min p-Nitroaniline = a + b log X [5]: 0.3323
- effect on rate of release of compound X (pNA) by plasmin from its substrate (plasmin-evaluation tests with substrate A1-A2-A3-X): increases the rate of release of compound X proportionally to its concentration

— US7338777B2, “Method for determining the biological activity of defibrotide” (Gentium SPA, priority 2001, dated 2008)
